# Patent US20070010489A1 (priority 2002, published 2007)
# Like-named read-outs stand apart in the source and are kept apart here.
# What was measured:
# [1] = test system: Recombinant HIV-1 Strains With Resistance Mutations in the Protease Gene; experiment: Cross-Resistance Profile Assay, whole panel; type: cell-based; settings: resistance = 5-fold and higher change in EC50 vs wild type; 11 mutant viruses
# [2] = test system: mutant HIV-1 with I84V/L90M mutations; experiment: microbe, parasite or virus in culture; type: cell-based; settings: for I84V/L90M fold change: fold difference in EC50 mutant vs wild type, class symbols
# [3] = in vitro; settings: human, CC50 (μM)
# [4] = test system: I50V (#1); design: key to the marks not given beside the values
# [5] = test system: I84V/L90M; design: key to the marks not given beside the values
# [6] = test system: HIV; experiment: microbe, parasite or virus in culture; type: cell-based; settings: Human immunodeficiency virus 1
# [7] = target: T1, 84V90M (Human immunodeficiency virus type 1 group M subtype B, UniProt P04585, I572V/L578M); experiment: biochemical; type: biochemical, HIV; settings: Enzymatic assay
# [8] = test system: MT-2 cells
# [9] = test system: 48V54V82S; experiment: microbe, parasite or virus in culture; type: cell-based, HIV
# [10] = test system: 46I50V; experiment: microbe, parasite or virus in culture; type: cell-based, HIV
# [11] = test system: 48V82A90M; experiment: microbe, parasite or virus in culture; type: cell-based, HIV
# [12] = test system: 48V54V82A; experiment: microbe, parasite or virus in culture; type: cell-based, HIV
# [13] = test system: 30N82I88D; experiment: microbe, parasite or virus in culture; type: cell-based, HIV
# [14] = test system: PBMC in human whole blood
# [15] = target: T1, 84V90M; experiment: cell-based; design: species or system HIV; settings: Cell-based assay (MT-4)
# [16] = target: T2, recombinant HIV-1 protease (Human immunodeficiency virus type 1 group M subtype B, UniProt P04585); experiment: biochemical; settings: for IC50: read-out: WT IC50
# T2 construct: Enzyme: recombinant HIV-1 protease expressed in E. Coli; purchased Bachem California, Inc. H-9040; host or cells: E. coli
# [17] = test system: WT; experiment: microbe, parasite or virus in culture; type: cell-based, HIV
# [18] = target: T1, 84V90M; type: biochemical, HIV; settings: Enzymatic assay
# [19] = test system: recombinant HIV-1 10I/48V/54V/82A; experiment: microbe, parasite or virus in culture; type: cell-based
# [20] = test system: recombinant HIV-1 48V/54V/71V/82S; experiment: microbe, parasite or virus in culture; type: cell-based
# [21] = test system: recombinant HIV-1 46I/47V/50V; experiment: microbe, parasite or virus in culture; type: cell-based
# [22] = test system: recombinant HIV-1 10I/48V/71V/82A/90M; experiment: microbe, parasite or virus in culture; type: cell-based
# [23] = test system: recombinant HIV-1 30N/50S/82I/88D; experiment: microbe, parasite or virus in culture; type: cell-based
# [24] = test system: wild-type HIV-1 strain IIIB; experiment: microbe, parasite or virus in culture; type: cell-based; settings: Human immunodeficiency virus 1, IIIB
# [25] = test system: WT HIV-1; experiment: microbe, parasite or virus in culture; settings: Human immunodeficiency virus 1, read-out: Cell-based assay (MT-4) EC50/nM WT
# [26] = Human immunodeficiency virus 1, read-out: EC50 46I50V
# [27] = Human immunodeficiency virus 1, read-out: EC50 48V54V 82A
# [28] = Human immunodeficiency virus 1, read-out: EC50 30N 82I88D
# [29] = Human immunodeficiency virus 1, read-out: EC50 WT
smiles,measurement,setting,value
CCCCOC(=O)C(C)NP(=O)(COc1ccc(CC(NC(=O)OC2COC3OCCC23)C(O)CN(CC(C)C)S(=O)(=O)c2ccc(OC)cc2)cc1)NC(C)C(=O)OCCCC (centres unmarked) [GS-16503],Total No. of Resistant Viruses,[1],0
CCOP(=O)(COc1ccc(CC(NC(=O)OC2COC3OCCC23)C(O)CN(CC(C)C)S(=O)(=O)c2ccc(OC)cc2)cc1)OCC (centres unmarked) [drawing 1768 R1=OEt R2=OEt],I84V/L90M fold change,[2],− (≦3)
same,CC50,[3],5 to 50 µM
COc1ccc(S(=O)(=O)N(CC(O)C(Cc2ccccc2)NC(=O)OC2COC3OCCC23)CC(C)(C)CO)cc1 (centres unmarked),I50V (#1) fold change,[4],+++
same,I84V/L90M fold change,[5],+++
same,EC50,[6],< 0.05 µM
"CCOP(=O)(CCNC(=O)Oc1ccc(CC2C(O)C(O)C(Cc3ccc(OC)cc3)N(Cc3ccc(O)cc3)C(=O)N2Cc2ccc(O)cc2)cc1)OCC (centres unmarked) [OCH3, Ph-pOH, OCONH(CH2)2PO3Et2]",IC50,[7],49 nM
CCOC(=O)C(C)OP(=O)(COc1ccc(CC(NC(=O)OC2COC3OCCC23)C(O)CN(CC(C)C)S(=O)(=O)c2ccc(OC)cc2)cc1)Oc1ccccc1 (centres unmarked) [drawing 1775 R1=OPh R2=Lac-Et],CC50,[8]; class symbols,5 to 50 µM
O=C1N(Cc2ccccc2)C(Cc2ccccc2)C(O)C(O)C(Cc2ccc(OCP(=O)(O)O)cc2)N1Cc1ccccc1 (centres unmarked) [listing 1 of 2 here],IC50,[7],210 nM
Nc1n[nH]c2ccc(CN3C(=O)N(Cc4ccc(O)cc4)C(Cc4ccccc4)C(O)C(O)C3Cc3ccccc3)cc12 (centres unmarked) [p-OH],EC50,"[9]; Human immunodeficiency virus 1, read-out: EC50 48V54V 82S",0.039 µM
same,EC50,[10]; [26],0.055 µM
same,EC50,"[11]; Human immunodeficiency virus 1, read-out: EC50 48V82A 90M",0.019 µM
same,EC50,[12]; [27],0.032 µM
same,EC50,[13]; [28],0.079 µM
COc1ccc(S(=O)(=O)N(CC(O)C(Cc2ccccc2)NC(=O)OC2COC3OCCC23)CC(C)(C)CCOCP(=O)(O)O)cc1 (centres unmarked),I50V (#1) fold change,[4],++
same,I84V/L90M fold change,[5],++
same,EC50,[6],0.05 to 0.5 µM
CCOC(=O)C(C)NP(=O)(COc1ccc(CC(NC(=O)OC2COC3OCCC23)C(O)CN(CC(C)C)S(=O)(=O)c2ccc(OC)cc2)cc1)Oc1ccccc1 (centres unmarked) [GS-16571],Total No. of Resistant Viruses,[1],0
same,Major Intracellular Metabolites,[14],"X,GS-8373"
Nc1n[nH]c2ccc(CN3C(=O)N(Cc4ccc(OCc5ccccc5)cc4)C(Cc4ccccc4)C(O)C(O)C3Cc3ccccc3)cc12 (centres unmarked) [p-OBn],EC50,[15],5.31 µM
same,Ki,[16]; read-out: Ki,> 0.005 µM
same,IC50,[16],0.353 µM
same,EC50,[17]; read-out: EC50 WT,2.12 µM
COc1ccc(S(=O)(=O)N(CC(O)C(Cc2ccccc2)NC(=O)OC2COC3OCCC23)CC(C)(C)CCOCP(=O)(OCc2ccccc2)OCc2ccccc2)cc1 (centres unmarked),I50V (#1) fold change,[4],+++
same,I84V/L90M fold change,[5],+++
same,EC50,[6],< 0.05 µM
O=C1N(Cc2ccccc2)C(Cc2ccccc2)C(O)C(O)C(Cc2ccc(OCP(=O)(O)O)cc2)N1Cc1ccccc1 (centres unmarked) [listing 2 of 2 here],EC50,"[9]; Cell-based assay (MT-4), 48V54V82S, read-out: EC50 48V54V 82S",1.9 µM
same,IC50,[18],0.048 µM
same,EC50,"[10]; Cell-based assay (MT-4), 46I50V, read-out: EC50 46I50V",0.589 µM
same,EC50,"[11]; read-out: EC50 48V82A 90M, Cell-based assay (MT-4), 48V82A90M",3.29 µM
same,EC50,"[12]; Cell-based assay (MT-4), 48V54V82A, read-out: EC50 48V54V 82A",1.44 µM
same,EC50,[15],2.46 µM
same,EC50,"[13]; Cell-based assay (MT-4), 30N82I88D, read-out: EC50 30N 82I88D",0.293 µM
same,EC50,[17]; read-out: EC50 WT,0.107 µM
"O=C1N(Cc2ccccc2)C(Cc2ccc(O)cc2)C(O)C(O)C(Cc2ccc(O)cc2)N1Cc1ccccc1 (centres unmarked) [OH, Ph, OH]",IC50,[18],0.397 µM
same,EC50,[10]; [26],0.928 µM
same,EC50,[12]; [27],2.27 µM
same,EC50,[15],5.61 µM
same,IC50,[16],0.031 µM
same,EC50,[13]; [28],0.756 µM
same,EC50,[17]; [29],0.117 µM
O=C1N(Cc2ccccc2)C(Cc2ccccc2)C(O)C(O)C(Cc2ccc(OCP(=O)(OCc3ccccc3)OCc3ccccc3)cc2)N1Cc1ccccc1 (centres unmarked),IC50,[7],158 nM
"CCOP(=O)(COc1ccc(CC2C(O)C(O)C(Cc3ccc(OC)cc3)N(Cc3ccc(O)cc3)C(=O)N2Cc2ccc(O)cc2)cc1)OCC (centres unmarked) [OCH3, Ph-pOH, OCH2PO3Et2]",EC50,"[2]; MT-4, 84V90M, read-out: Cell-based assay (MT-4) EC50/nM 84V90M",148 nM
same,EC50,"[19]; MT-4, 48V54V82A, read-out: Cell-based assay (MT-4) EC50/nM 48V54V82A",70 nM
same,EC50,"[20]; MT-4, 48V54V82S, read-out: Cell-based assay (MT-4) EC50/nM 48V54V82S",129 nM
same,EC50,"[21]; MT-4, 46I50V, read-out: Cell-based assay (MT-4) EC50/nM 46I50V",90 nM
same,EC50,"[22]; MT-4, 48V82A90M, read-out: Cell-based assay (MT-4) EC50/nM 48V82A90M",54 nM
same,EC50,"[23]; MT-4, 30N82I88D, read-out: Cell-based assay (MT-4) EC50/nM 30N82I88D",25 nM
COc1ccc(S(=O)(=O)N(CC(C)C)CC(O)C(Cc2ccc(OCP(=O)(OCc3ccccc3)OCc3ccccc3)cc2)NC(=O)OC2COC3OCCC23)cc1 (centres unmarked) [drawing 1768 R1=OBn R2=OBn],I84V/L90M fold change,[2],− (≦3)
same,CC50,[8]; human,5 to 50 µM
same,EC50,[24],< 0.05 µM
"CCOP(=O)(CCNC(=O)Oc1ccc(CC2C(O)C(O)C(Cc3ccc(OC)cc3)N(Cc3cccc(N)c3)C(=O)N2Cc2cccc(N)c2)cc1)OCC (centres unmarked) [OCH3, Ph-mNH2, OCONH(CH2)2PO3Et2]",EC50,"[2]; Human immunodeficiency virus 1, read-out: Cell-based assay (MT-4) EC50/nM 84V90M",2260 nM
same,EC50,"[19]; Human immunodeficiency virus 1, read-out: Cell-based assay (MT-4) EC50/nM 48V54V82A",262 nM
same,EC50,"[20]; Human immunodeficiency virus 1, read-out: Cell-based assay (MT-4) EC50/nM 48V54V82S",214 nM
same,EC50,"[21]; Human immunodeficiency virus 1, read-out: Cell-based assay (MT-4) EC50/nM 46I50V",184 nM
same,EC50,"[22]; Human immunodeficiency virus 1, read-out: Cell-based assay (MT-4) EC50/nM 48V82A90M",215 nM
same,EC50,[25],74 nM
same,IC50,[7],116 nM
same,EC50,"[23]; Human immunodeficiency virus 1, read-out: Cell-based assay (MT-4) EC50/nM 30N82I88D",77 nM
"CCOP(=O)(COc1ccc(CC2C(O)C(O)C(Cc3ccc(OC)cc3)N(Cc3cccc(N)c3)C(=O)N2Cc2cccc(N)c2)cc1)OCC (centres unmarked) [OCH3, Ph-mNH2, OCH2PO3Et2]",IC50,[18],0.056 µM
same,EC50,[15],0.535 µM
same,IC50,[7],56 nM
Nc1n[nH]c2ccc(CN3C(=O)N(Cc4cccc(OCP(=O)(O)O)c4)C(Cc4ccccc4)C(O)C(O)C3Cc3ccccc3)cc12 (centres unmarked) [m-OCH2PO3H2],IC50,[18],0.033 µM
same,EC50,[17]; read-out: EC50 WT,> 12 µM
COc1ccc(S(=O)(=O)N(Cc2ccccc2)CC(O)C(Cc2ccccc2)NC(=O)OC2COC3OCCC23)cc1 (centres unmarked),I50V (#1) fold change,[4],+++
same,I84V/L90M fold change,[5],+++
same,EC50,[6],< 0.05 µM
"O=C1N(Cc2ccccc2)C(Cc2ccccc2)C(O)C(O)C(Cc2ccccc2)N1Cc1ccccc1 (centres unmarked) [H, Ph, H]",IC50,[18],0.631 µM
same,IC50,[16],0.034 µM
same,EC50,[13]; [28],3.36 µM
same,EC50,[17]; [29],2.49 µM
